Measurements as given in publication PMC9495681, “Examining Topoisomers of a Snake-Venom-Derived Peptide for Improved Antimicrobial and Antitumoral Properties” (Biomedicines, 2022).
pIC50: −log10 of the molar value. ≈ marks a conversion by molar mass, not a printed value. Peptide text beside a SMILES is read from it.

Assays:
[1] = test system: A. baumannii (ATCC 15308); assay: Minimal inhibitory concentration (MIC), broth microdilution; type: cell-based; conditions: Mueller Hinton Broth, 5 × 10^5 CFU/mL, 0.04% BSA and 0.002% acetic acid, 20–22 h at 37 °C, duplicate
Description: (§1) Assays were performed on three Gram-negative bacteria: E. coli (BW25113, Coli Genetic Stock Center), A. baumannii (ATCC 15308, CECT, Valencia, Spain), and Pseudomonas sp. (ATCC15915, CECT). The minimal inhibitory concentration (MIC) of each peptide was determined as described by Wiegand et al.. Peptide stocks in water were added to polypropylene 96-well plates (Greiner, Frickenhausen, Germany) and serially diluted from 100 to 0.2 μM. Fresh bacteria were incubated at 37 °C in Mueller Hinton Broth (MHB, Condalab, Torrejón de Ardoz, Spain) up to exponential growth and diluted to a final inoculum of 5 × 10^5 CFU/mL. BSA and acetic acid at 0.04% (w/v) and 0.002% (v/v) final concentration, respectively, were added to avoid peptide self-aggregation. Plates were incubated for 20–22 h at 37 °C. Each peptide was tested in duplicate. MIC values were the lowest peptide concentration where bacterial growth was not detected.

[2] = test system: Pseudomonas sp. (ATCC15915); assay: as above; type: cell-based; conditions: Mueller Hinton Broth, 5 × 10^5 CFU/mL, 0.04% BSA and 0.002% acetic acid, 20–22 h at 37 °C, duplicate
Description: as §1

HeLa S3 = assay: Peptide cytotoxicity (Cell Titer Blue viability); type: cell-based, Human; conditions: peptide treatment 24 h, medium with 2% FBS, Cell Titer Blue fluorescence, triplicate
Text: (§2) Human HeLa S3 (cervix epithelial carcinoma), leukemia Jurkat E6.1 (T-cell lineage), U937 (histiocytic lymphoma), THP-1 (acute monocytic leukemia), and 1BR3G human fibroblasts were obtained from the Cell Lines Repository of the Institut Municipal d’Investigació Medica (Barcelona, Spain). BxPC3 (pancreas adenocarcinoma), A549 (lung carcinoma), SH-Sy5Y (neuroblastoma), Panc1 (epithelioid carcinoma), 786-O (renal cell adenocarcinoma), and HT29 (colorectal adenocarcinoma) were obtained from the Integrative Biomedical Materials and Nanomedicine lab at UPF (Barcelona, Spain). HeLa S3, Jurkat E6.1, U937, THP-1, Panc1, and 786-O were cultured in Roswell Park Memorial Institute medium (RPMI) supplemented with 10% fetal bovine serum (FBS) and 1% penicillin/streptomycin solution and maintained at 37 °C in a humidified atmosphere with 5% of CO2. 1BR3G, BxPC3, A549, and HT29 were cultured in Dulbecco’s Modified Eagle’s Medium (DMEM) supplemented with 10% FBS and 1% penicillin/streptomycin solution and maintained at 37 °C in a humidified atmosphere with 5% of CO2. SH-Sy5Y was cultured in DMEM supplemented with 15% FBS and 1% penicillin/streptomycin and maintained at 37 °C in a humidified atmosphere with 5% of CO2. Cultures were maintained at 10^5–10^6 cell/mL densities. For 1BR3G human fibroblasts, BxPC3, A549, SH-Sy5Y, Panc1, 786-O, and HT29 were split every time they reached 80–90% of confluence after harvesting with PBS and trypsin.
(§3) About 60,000 cells were added to different microfuge tubes containing 2-fold serial dilution of the peptide, with a final concentration in the range between 0.1–100 μM in RPMI containing 2% of FBS. After 30 min incubation at 37 °C and 5% of CO2, […] of medium containing approximately 10,000 treated cells were transferred to a 96-well plate. Then, 15 μL of Cell Titer Blue dye (Promega, Madison, WI, USA) was added, and plates were reincubated for 24 h. Fluorescence was read at 4 and 24 h after dye addition in a Synergy HTX (BioTek, Winooski, VT, USA) reader, with λexc = 560 nm and λem = 620 nm. In the case of adherent cultures, 5000 cells/well were seeded in 96-well plates. After 24 h incubation at 37 °C and 5% of CO2, the medium was removed, and a new medium with 2% of FBS containing the various 2-fold dilution of the peptides was added. After a further 30 min, 15 μL of Cell Titer Blue dye was added to each well, and the measurement was done as above. Relative viability was calculated relative to a cell with only 2% FBS in the corresponding medium as a control (100% viability). All assays were conducted in triplicate.

Jurkat E6.1 = assay: Peptide cytotoxicity (Cell Titer Blue viability); type: cell-based, Human; conditions: peptide treatment 24 h, medium with 2% FBS, Cell Titer Blue fluorescence, triplicate
Text: as §2, §3

SH-Sy5Y (neuroblastoma) = assay: Peptide cytotoxicity (Cell Titer Blue viability); type: cell-based, Human; conditions: peptide treatment 24 h, medium with 2% FBS, Cell Titer Blue fluorescence, triplicate
Text: as §2, §3

THP-1 = assay: Peptide cytotoxicity (Cell Titer Blue viability); type: cell-based, Human; conditions: peptide treatment 24 h, medium with 2% FBS, Cell Titer Blue fluorescence, triplicate
Text: as §2, §3

U937 = assay: Peptide cytotoxicity (Cell Titer Blue viability); type: cell-based, Human; conditions: peptide treatment 24 h, medium with 2% FBS, Cell Titer Blue fluorescence, triplicate
Text: as §2, §3

[3] = test system: BxPC3, A549, Panc1, 786-O, and HT29; assay: Peptide cytotoxicity (Cell Titer Blue viability), non-leukemia cell lines of Figure 2; type: cell-based, Human; conditions: peptide treatment 24 h, triplicate, read-out: IC50, other cancer cell lines (non-leukemia, other than SH-Sy5Y)
Text: Human HeLa S3 (cervix epithelial carcinoma), leukemia Jurkat E6.1 (T-cell lineage), U937 (histiocytic lymphoma), THP-1 (acute monocytic leukemia), and 1BR3G human fibroblasts were obtained from the Cell Lines Repository of the Institut Municipal d’Investigació Medica (Barcelona, Spain). BxPC3 (pancreas adenocarcinoma), A549 (lung carcinoma), SH-Sy5Y (neuroblastoma), Panc1 (epithelioid carcinoma), 786-O (renal cell adenocarcinoma), and HT29 (colorectal adenocarcinoma) were obtained from the Integrative Biomedical Materials and Nanomedicine lab at UPF (Barcelona, Spain). HeLa S3, Jurkat E6.1, U937, THP-1, Panc1, and 786-O were cultured in Roswell Park Memorial Institute medium (RPMI) supplemented with 10% fetal bovine serum (FBS) and 1% penicillin/streptomycin solution and maintained at 37 °C in a humidified atmosphere with 5% of CO2. […]
About 60,000 cells were added to different microfuge tubes containing 2-fold serial dilution of the peptide, with a final concentration in the range between 0.1–100 μM in RPMI containing 2% of FBS. […] Fluorescence was read at 4 and 24 h after dye addition in a Synergy HTX (BioTek, Winooski, VT, USA) reader, with λexc = 560 nm and λem = 620 nm. […] Relative viability was calculated relative to a cell with only 2% FBS in the corresponding medium as a control (100% viability). […]

E. coli (BW25113) = assay: Minimal inhibitory concentration (MIC), broth microdilution; type: cell-based; conditions: Mueller Hinton Broth, 5 × 10^5 CFU/mL, 0.04% BSA and 0.002% acetic acid, 20–22 h at 37 °C, duplicate
Description: as §1

1BR3G human fibroblasts = assay: Peptide cytotoxicity (Cell Titer Blue viability); type: cell-based; conditions: 24 h treatment, medium with 2% FBS, Cell Titer Blue fluorescence, triplicate
Text: as §2, §3

human erythrocytes = assay: Hemolytic activity; type: cell-based; conditions: up to 100 μM; 4% (v/v) human erythrocytes in PBS, 30 min at 37 °C, OD 540 nm, triplicate
Description: Fresh human blood (10 mL) was collected in EDTA tubes and centrifuged at 1000× g for 10 min at 4 °C. After plasma removal, the pellet containing the erythrocytes was washed 3× with phosphate-buffered saline (PBS) and resuspended to an 8% (v/v) suspension in PBS. Then, 100 μL of the suspension was added to a final concentration of 4% (v/v) to microfuge tubs containing 2-fold serially diluted peptides (0.2–100 μM). The suspension was incubated for 30 min at 37 °C with agitation, then centrifuged for 2 min at 1000× g. The supernatant was transferred to 96-well plates, and hemoglobin was measured by OD at 540 nm in a Synergy HTX plate reader (BioTek). Positive and negative controls were 1% (v/v) Triton X-100 and untreated erythrocytes (4% v/v in PBS), respectively. Measurements were done in triplicate. Hemolysis was calculated as:(2) % Hemolysis=[OD540peptide]−[OD540PBS]/[OD540Triton]−[OD540PBS]·100

SMILES	MIC A. baumannii [1]	MIC Pseudomonas sp. [2]	pIC50 (HeLa S3)	pIC50 (Jurkat E6.1)	pIC50 (SH-Sy5Y (neuroblastoma))	pIC50 (THP-1)	pIC50 (U937)	pIC50 [3]	MIC E. coli (E. coli (BW25113))	IC50 (cell viability) human fibroblast 1BR3G (1BR3G human fibroblasts)	Hemolytic effect (in words) (human erythrocytes)
CC[C@H](C)[C@H](NC(=O)[C@H](CCCCN)NC(=O)[C@H](CCCCN)NC(=O)[C@H](CC(C)C)NC(=O)[C@H](CCCNC(=N)N)NC(=O)[C@H](CCCCN)NC(=O)[C@H](CCCCN)NC(=O)[C@@H](NC(=O)[C@H](CO)NC(=O)[C@H](CCCCN)NC(=O)[C@H](CCCCN)NC(=O)[C@@H](NC(=O)[C@H](CCCCN)NC(=O)[C@H](CCCCN)NC(=O)[C@H](Cc1ccccc1)NC(=O)[C@H](Cc1ccccc1)NC(=O)[C@H](CCCCN)NC(=O)[C@H](CCCCN)NC(=O)[C@H](Cc1ccccc1)NC(=O)[C@H](CCCNC(=N)N)NC(=O)[C@@H](N)CCCCN)C(C)C)C(C)C)C(=O)N[C@@H](Cc1ccccc1)C(=O)N[C@@H](CCCCN)C(=O)N[C@@H](CCCCN)C(=O)N1CCC[C@H]1C(=O)N[C@@H](CCSC)C(=O)N[C@H](C(=O)N[C@H](C(=O)NCC(=O)N[C@H](C(=O)N[C@H](C(=O)N[C@H](C(=O)N1CCC[C@H]1C(=O)N[C@@H](Cc1ccccc1)C(N)=O)[C@@H](C)CC)[C@@H](C)O)C(C)C)[C@@H](C)CC)C(C)C [Ctn] (H-KRFKKFFKKVKKSVKKRLKKIFKKPMVIGVTIPF-NH2)	0.78 µM (≈ 3.24 µg/mL)	<0.05 µM	~5.46	> 6.00	~5.58	> 6.00	> 6.00	≤ 5.00	–	–	–
CC[C@H](C)[C@H](NC(=O)[C@H](CCCCN)NC(=O)[C@H](CCCCN)NC(=O)[C@H](CC(C)C)NC(=O)[C@H](CCCNC(=N)N)NC(=O)[C@H](CCCCN)NC(=O)[C@@H](N)CCCCN)C(=O)N[C@@H](Cc1ccccc1)C(=O)N[C@@H](CCCCN)C(=O)N[C@@H](CCCCN)C(=O)N1CCC[C@H]1C(=O)N[C@@H](CCSC)C(=O)N[C@H](C(=O)N[C@H](C(=O)NCC(=O)N[C@H](C(=O)N[C@H](C(=O)N[C@H](C(=O)N1CCC[C@H]1C(=O)N[C@@H](Cc1ccccc1)C(N)=O)[C@@H](C)CC)[C@@H](C)O)C(C)C)[C@@H](C)CC)C(C)C [Ctn[15-34]] (H-KKRLKKIFKKPMVIGVTIPF-NH2)	0.78 µM (≈ 1.85 µg/mL)	<0.05 µM	–	–	–	–	–	–	<0.005 µM	≈ 14.32 μM	totally nonhemolytic
